The text below walks through data of ChEMBL document CHEMBL3758130, “Effect of Chicoric Acid on Mast Cell-Mediated Allergic Inflammation in Vitro and in Vivo” (J Nat Prod, 2015).

Data set [1] deals with c-Jun N-terminal kinase, JNK (Homo sapiens) (UniProt P45983+P53779+P45984). Put plainly: Inhibition of PMACI-induced phosphorylation of JNK in HMC1 cells at 12.5 to 50 uM pretreated for 30 mins followed by addition of PMACI incubated for 15 mins by Western blot analysis. A general note: Immunoblotting shows a protein as a band on a membrane.
In data set [2] the target is T1, NF-kappa-B inhibitor alpha (Homo sapiens) (UniProt P25963).
T1 sequence (whole entry): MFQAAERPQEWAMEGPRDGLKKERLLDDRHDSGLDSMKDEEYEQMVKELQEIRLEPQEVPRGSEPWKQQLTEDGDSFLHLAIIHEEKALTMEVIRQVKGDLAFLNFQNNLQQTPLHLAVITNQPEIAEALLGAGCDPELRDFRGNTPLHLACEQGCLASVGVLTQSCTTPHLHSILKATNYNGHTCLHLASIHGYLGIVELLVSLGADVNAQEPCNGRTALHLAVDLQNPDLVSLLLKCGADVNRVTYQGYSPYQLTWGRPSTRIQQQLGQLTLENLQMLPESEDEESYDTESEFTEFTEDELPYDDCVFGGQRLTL
Put plainly: Inhibition of PMACI-induced phosphorylation of IkappaB-alpha in HMC1 cells at 12.5 to 50 uM pretreated for 30 mins followed by addition of PMACI incubated for 15 mins by Western blot analysis.

Data set [3] can be described thus: Effect on IKKalpha/beta level in HMC1 cells at 12.5 to 50 uM pretreated for 30 mins followed by addition of PMACI incubated for 15 mins by Western blot analysis. Format: ADME, cell-based. Conditions: human, hmc1, 0.25 h.
The test system of data set [4] is Mus musculus. Put plainly: Antiinflammatory activity in ICR male mouse assessed as reduction in compound 48/80-induced mortality rate at 20 mg/kg, ip dosed 1 hr prior to anaphylactic shock measured for 1 hr.
The test system of data set [5] is Mus musculus. Put plainly: Antiinflammatory activity in ICR male mouse assessed as reduction in compound 48/80-induced serum histamine level at 20 mg/kg, ip dosed 1 hr prior to anaphylactic shock by enzymeimmunoassay.
Data set [6] has as its target MAP kinase p38 (Homo sapiens) (UniProt O15264+Q15759+Q16539+P53778). Put plainly: Inhibition of PMACI-induced phosphorylation of p38 in HMC1 cells at 12.5 to 50 uM pretreated for 30 mins followed by addition of PMACI incubated for 15 mins by Western blot analysis.
Data set [7] has as its target Inhibitor of NF-kappa-B kinase alpha/beta (Homo sapiens) (UniProt O14920+O15111). Nature of the data set: Inhibition of PMACI-induced phosphorylation of IKKalpha/beta in HMC1 cells at 12.5 to 50 uM pretreated for 30 mins followed by addition of PMACI incubated for 15 mins by Western blot analysis.
The nature of data set [8]: Effect on Akt level in HMC1 cells at 12.5 to 50 uM pretreated for 30 mins followed by addition of PMACI incubated for 5 mins by Western blot analysis. Format: ADME, cell-based. Particulars: human, hmc1, 5 min.
The nature of data set [9]: Effect on JNK level in HMC1 cells at 12.5 to 50 uM pretreated for 30 mins followed by addition of PMACI incubated for 15 mins by Western blot analysis. Format: cell-based. Conditions: human, hmc1, 0.25 h.
The test system of data set [10] is HMC1. Nature of the data set: Antiinflammatory activity in HMC1 cells assessed as suppression of PMACI-induced IL-6 production pretreated for 30 mins followed by addition of PMACI incubated for 24 hrs by enzyme immunoassay. Particulars: Homo sapiens.
Data set [11] concerns the target RAC-alpha serine/threonine-protein kinase (Homo sapiens) (UniProt P31749). Nature of the data set: Inhibition of PMACI-induced phosphorylation of Akt at […] in HMC1 cells at 12.5 to 50 uM pretreated for 30 mins followed by addition of PMACI incubated for 5 mins by Western blot analysis.
Data set [12] has as its system HMC1. Put plainly: Antiinflammatory activity in HMC1 cells assessed as suppression of PMACI-induced IL-1beta mRNA expression pretreated for 30 mins followed by addition of PMACI incubated for 6 hrs by qRT-PCR analysis. Conditions: Homo sapiens. (Real-time PCR tracks product formation cycle by cycle.)
Data set [13] relates to HMC1. Nature of the data set: Inhibition of PMACI-induced phosphorylation of ERK in HMC1 cells at 12.5 to 50 uM pretreated for 30 mins followed by addition of PMACI incubated for 15 mins by Western blot analysis. Particulars: Homo sapiens.
A short description of data set [14]: Cytotoxicity against HMC1 cells at 6.25 to 50 uM after 24 hrs by MTT assay. Format: cell-based. Conditions: human, hmc1, 24 h. On the technique in general: Tetrazolium dyes change colour on reduction, which living cells bring about.
In data set [15] the test system is HMC1. Nature of the data set: Antiinflammatory activity in HMC1 cells assessed as suppression of PMACI-induced IL-1beta production pretreated for 30 mins followed by addition of PMACI incubated for 24 hrs by enzyme immunoassay. Conditions: Homo sapiens.
Data set [16] has as its system HMC1. Put plainly: Antiinflammatory activity in HMC1 cells assessed as suppression of PMACI-induced TNF-alpha mRNA expression pretreated for 30 mins followed by addition of PMACI incubated for 6 hrs by qRT-PCR analysis. Particulars: Homo sapiens.
Data set [17] is described as follows: Effect on ERK level in HMC1 cells at 12.5 to 50 uM pretreated for 30 mins followed by addition of PMACI incubated for 15 mins by Western blot analysis. Format: cell-based. Conditions: human, hmc1, 0.25 h.
Data set [18] has as its system HMC1. Nature of the data set: Antiinflammatory activity in HMC1 cells assessed as suppression of pro-caspase-1 degradation pretreated for 30 mins followed by addition of PMACI incubated for 15 mins by Western blot analysis. Conditions: Homo sapiens.
Data set [19] in a line: Effect on p38 level in HMC1 cells at 12.5 to 50 uM pretreated for 30 mins followed by addition of PMACI incubated for 15 mins by Western blot analysis. Format: ADME, cell-based. Particulars: human, hmc1, 0.25 h.
Data set [20] concerns HMC1. Nature of the data set: Antiinflammatory activity in HMC1 cells assessed as suppression of PMACI-induced TNF-alpha production pretreated for 30 mins followed by addition of PMACI incubated for 24 hrs by enzyme immunoassay. Conditions: Homo sapiens.
In data set [21] the test system is HMC1. Nature of the data set: Antiinflammatory activity in HMC1 cells assessed as suppression of PMACI-induced IL-6 mRNA expression pretreated for 30 mins followed by addition of PMACI incubated for 6 hrs by qRT-PCR analysis. Particulars: Homo sapiens.
The target in data set [22] is T1, NF-kappa-B inhibitor alpha (Homo sapiens). Put plainly: Inhibition of PMACI-induced degradation of IkappaB-alpha in HMC1 cells at 12.5 to 50 uM pretreated for 30 mins followed by addition of PMACI incubated for 15 mins by Western blot analysis.

The source made the active and inactive calls. The rule behind the calls is not given here.

Chain of RAC-alpha serine/threonine-protein kinase (Homo sapiens) (P31749 whole entry): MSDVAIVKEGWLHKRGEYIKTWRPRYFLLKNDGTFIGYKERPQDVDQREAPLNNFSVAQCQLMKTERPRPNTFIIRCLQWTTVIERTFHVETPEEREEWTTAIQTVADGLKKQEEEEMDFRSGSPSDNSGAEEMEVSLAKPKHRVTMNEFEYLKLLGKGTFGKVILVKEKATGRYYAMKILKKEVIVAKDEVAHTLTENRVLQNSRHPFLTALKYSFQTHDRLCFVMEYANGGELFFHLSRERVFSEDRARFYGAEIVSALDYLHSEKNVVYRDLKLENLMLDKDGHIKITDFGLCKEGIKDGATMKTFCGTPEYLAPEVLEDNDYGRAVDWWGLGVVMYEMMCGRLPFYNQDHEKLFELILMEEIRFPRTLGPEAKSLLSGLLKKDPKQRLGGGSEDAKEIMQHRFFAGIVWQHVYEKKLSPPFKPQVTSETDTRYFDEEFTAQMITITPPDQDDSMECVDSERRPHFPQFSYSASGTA

Take `O=C(/C=C/c1ccc(O)c(O)c1)O[C@@H](C(=O)O)[C@@H](OC(=O)/C=C/c1ccc(O)c(O)c1)C(=O)O` [CICHORIC ACID]: the inhibition entry (in data set [1]; in data set [6]; in the data set with HMC1 [13]) was “inactive” in each case. The inhibition result in data set [2], in data set [7], in [11] and in data set [22] was “Active” in each case. In addition, the Activity result in [3] is “Non-toxic”; in data set [8] it was “Non-toxic”; in data set [9], “Non-toxic”; with HMC1 [10], “Dose-dependent effect”; in the data set on HMC1 [12], “Dose-dependent effect”; in data set [14] it was “Non-toxic”. Also, the Activity result is “Dose-dependent effect” in the data set on HMC1 [15]; “Dose-dependent effect” in the data set with HMC1 [16]; “Non-toxic” in [17]; “Non-toxic” in data set [19]; “Dose-dependent effect” in the data set with HMC1 [20]; “Dose-dependent effect” with HMC1 [21]. In addition, the outcome with Mus musculus [4], with Mus musculus [5] and with HMC1 [18] was Active.
